Marks after values point to notes of the source that are not given here. Where no end group is shown, it is not given here.
Legend:
[1] = system: MDA-MB-231 cells (CD44+ human breast adenocarcinoma cells); assay: Chemotactic chamber (Boyden) assay, migration through polycarbonate filters; type: cell-based; details: for MI buffer / MI: Table 4; for MI buffer: cells migrating in response to peptide divided by cells migrating in response to buffer; for Migratory Index: Table 3, cells migrating in response to peptide/cells migration in response to LVLDPK; for mean number of migrating cells per six random high powered fields: Table 2; for MI: migratory index; for chemotactic response of MDA-MB231 (in words): p<0.01, 200 ng of bone OPN; for mean number of migrating cells per random high power field: Table 1, 4 hours
Protocol: Each peak was then tested for mediation of chemotaxis or for its ability to inhibit OPN mediated chemotaxis using the chemotactic assay as follows (see e.g., Weber et al. (1996) Science 271:509-512). Briefly, uncoated polycarbonated filters (pore size […] ) were used to separate the upper and lower chambers of chemotactic wells. 1×10^3 MDA-MB-231 cells (CD44^+human breast adenocarcinoma cells) were added to the upper chamber and incubated in the presence or absence of the indicated 50 pmols peptide. After 4 hours, the filters were removed, fixed in methanol arid stained with hematoxylin and eosin. Cells which have responded to the peptide, migrate to various areas of the lower surface and can be counted microscopically. Each data point is reported as the mean number of migrating cells per random high power field.
Peptide 51 was identified as being chemotactic. The peptide was sequenced using a gas-phase sequenator and determined to have the sequence LVLDPK (SEQ ID NO:1). To confirm that chemotaxis was due to this peptide, a 16 amino acid peptide spanning the chemotactic sequence in OPN was synthesized and tested for its chemotactic properties. The resulting peptide, SP64 has the sequence KFHSHKDKLVLDPKSK (SEQ ID NO:2) and containing the chemotactic sequence from residues 9-14. 2×10^4 MDA-MB-231 cells were assayed for chemotactic response to the indicated peptides as described above. Each data point is reported as the mean number of migrating cells per six random high powered fields ± standard error of the mean. Each experiment was repeated four times.
To test the amino acid specificity for chemotactic response several substitutions were created in the chemotactic sequence and the new peptides tested for their ability to induce chemotaxis. Data are expressed as migratory index (cells migrating in response to peptide/cells migration in response to LVLDPK, SEQ ID NO:1).
(§1) To evaluate the potential of peptide analogues to inhibit OPN induced chemotaxis, 100 nmoles of peptide was added to the lower compartment and the response of these cells to OPN was determined as described. MI(buffer) was calculated by dividing the number of cells migrating in response to peptide by the number of cells migrating in response to buffer. MI(inhibitory) equals the number of cells migrating towards OPN in the presence of buffer divided by the number migrating towards OPN in the presence of peptide.

MDA-MB-231 cells = assay: Inhibition of OPN induced chemotaxis in the chemotactic chamber assay; type: cell-based, human; details: for MI inhibitory: Table 4, 100 nmoles of peptide, cells migrating towards OPN in presence of buffer divided by number migrating towards OPN in presence of peptide
Protocol: as §1

[2] = system: cells recruited into the peritoneum; assay: In vivo chemotaxis after injection of peptide into the peritoneal cavity, lavage and flow cytometry; set-up: species or system C57 black mice; details: for induction ratio, Total / induction ratio, Total CD44 / induction ratio, B-lymphocytes / induction ratio, T-lymphocytes / induction ratio, Monocytes: 25 nmols i.p., 6 hours, normalized to PBS-injected mouse, average of 6 mice; for induction ratio, B-lymphocytes: B220+; for induction ratio, T-lymphocytes: CD3+; for induction ratio, Monocytes: Mac-1+; for chemotactic activity in vivo (in words): mouse
Protocol: Since the peptide LVLDPK (SEQ ID NO:1) was chemotactic to tumor cells and macrophages in vitro, we tested whether the peptide was chemotactic in vivo. 25 nmols of the peptide were injected into the peritoneal cavity of C57 black mice. After six hours the cells recruited into the peritoneum were recovered by lavage and identified by flow cytometry. Titration of soluble peptides into the peritoneum induces a cellular infiltrate in a dose dependent manner. The induction ratio is the number of cells of a particular lineage recovered from the peritoneum of a peptide-injected mouse (e.g., 6 hours after injection) normalized for each experiment to the number of cells of the same lineage recovered from the peritoneum of a PBS-injected mouse. Cell numbers for PBS-injected mice ranged from […] to 646,000 cells total; 182,300 to 325,000 CD44^+ cells; 224,000 to 496,000 […] cells; 31,300 to 76,000 B220^+ cells; 18,100 to 21,100 CD3^+ cells), representing the induction of macrophages (Mac-1^+), B cells (B220^+), and T cells (CD3^+). Values represent an average of 6 mice.

[3] = labelled agent in lower chamber, Ab64 in upper chamber
[4] = labelled agent in lower chamber, OPN in upper chamber
[5] = labelled agent in lower chamber, PBS in upper chamber, 2×10^4 cells
[6] = labelled agent in lower chamber, SP64 in upper chamber
[7] = labelled agent in lower chamber, pep 51 in upper chamber
[8] = labelled agent in upper chamber, PBS in lower chamber

Substance | MI buffer [1] | MI inhibitory (MDA-MB-231 cells) | chemotactic activity (in words) [1] | Migratory Index [1] | MI [1] | also measured
Acetyl-LVLDP (Ac-LVLDP) [pepK″] | 1 | 4 |  |  |  | 
ILVDPK (OTHER INFORMATION: Description of Artificial Sequence:Synthetic Peptide) |  |  | chemotactic activity |  |  | 
ILVVDPK (OTHER INFORMATION: Description of Artificial Sequence:Synthetic Peptide) [pepK′] |  |  |  | 1.0 |  | 
KFHSHKDKLVLDPKSK (OTHER INFORMATION: Description of Artificial Sequence:Synthetic Peptide) [SP64] | 12 | 9 |  | 1 | 1 | mean number of migrating cells per six random high powered fields [1, 3]: 25 cells per six random high powered fields; mean number of migrating cells per six random high powered fields [1, 4]: 66 cells per six random high powered fields; mean number of migrating cells per six random high powered fields [1, 5]: 217 cells per six random high powered fields; mean number of migrating cells per six random high powered fields [1, 6]: 66 cells per six random high powered fields; mean number of migrating cells per six random high powered fields [1, 7]: 97 cells per six random high powered fields; mean number of migrating cells per six random high powered fields [1, 8]: 243 cells per six random high powered fields; chemotactic response of MDA-MB231 (in words) [1]: stimulated the chemotactic response
LELDPK (OTHER INFORMATION: Description of Artificial Sequence:Synthetic Peptide) [pepH] | 2 | 10 |  | 0.3 | 0.3 | 
LLVDPK (OTHER INFORMATION: Description of Artificial Sequence:Synthetic Peptide) |  |  | chemotactic activity |  |  | 
LVIDPK (OTHER INFORMATION: Description of Artificial Sequence:Synthetic Peptide) [pepD] | 11 | 9 |  | 1 | 1 | 
LVLAPK (OTHER INFORMATION: Description of Artificial Sequence:Synthetic Peptide) [pepI] | 1 | 9 |  | 0.1 | 0.1 | 
LVLDEK (OTHER INFORMATION: Description of Artificial Sequence:Synthetic Peptide) [pepE] | 2 | 10 |  | 0.2 | 0.2 | 
LVLDP (OTHER INFORMATION: Description of Artificial Sequence:Synthetic Peptide) [pepG] | 0 | 4 |  | 0.1 | 0.1 | inhibition of chemotaxis by peptide (in words) (MDA-MB-231 cells; migratory index against peptide 51): inhibits chemotaxis
LVLDPA (OTHER INFORMATION: Description of Artificial Sequence:Synthetic Peptide) [pepK] |  |  |  | 0.1 |  | 
LVLDPK (OTHER INFORMATION: Description of Artificial Sequence:Synthetic Peptide) [peptide 51, chemotactic tryptic peptide of osteopontin] | 10 | 10 | chemotactic | 1 | 1 | mean number of migrating cells per random high power field ([1]; labelled peptide (50 pmols) in lower chamber, PBS in upper chamber, 1×10^3 cells): 68* cells per random high power field; mean number of migrating cells per random high power field ([1]; labelled peptide in lower chamber, peptide 49 in upper chamber): 83* cells per random high power field; mean number of migrating cells per random high power field ([1]; labelled peptide in lower chamber, peptide 50 in upper chamber): 56* cells per random high power field; mean number of migrating cells per random high power field ([1]; labelled peptide in lower chamber, peptide 51 in upper chamber): 32 cells per random high power field; mean number of migrating cells per random high power field ([1]; labelled peptide in lower chamber, peptide 52 in upper chamber): 78* cells per random high power field; mean number of migrating cells per random high power field ([1]; labelled peptide in lower chamber, peptide 53 in upper chamber): 62* cells per random high power field; mean number of migrating cells per random high power field ([1]; labelled peptide in upper chamber, PBS in lower chamber): 13 cells per random high power field; mean number of migrating cells per six random high powered fields [1, 3]: 21 cells per six random high powered fields; mean number of migrating cells per six random high powered fields [1, 4]: 48 cells per six random high powered fields; mean number of migrating cells per six random high powered fields [1, 5]: 248 cells per six random high powered fields; mean number of migrating cells per six random high powered fields [1, 6]: 109 cells per six random high powered fields; mean number of migrating cells per six random high powered fields [1, 7]: 65 cells per six random high powered fields; mean number of migrating cells per six random high powered fields [1, 8]: 6 cells per six random high powered fields; chemotactic response of MDA-MB231 (in words) [1]: stimulated the chemotactic response; induction ratio, Total [2]: 8.6*; induction ratio, Total CD44 [2]: 7.9*; induction ratio, B-lymphocytes [2]: 1.3; induction ratio, T-lymphocytes [2]: 1.3; induction ratio, Monocytes [2]: 7.1*; chemotactic activity in vivo (in words) [2]: chemotactic to macrophages in vivo
LVLEPK (OTHER INFORMATION: Description of Artificial Sequence:Synthetic Peptide) [pepJ] | 6 | 9 |  | 0.6 | 0.6 | 
LVLVPK (OTHER INFORMATION: Description of Artificial Sequence:Synthetic Peptide) [pepA] |  |  |  | 0.2 |  | induction ratio, Total [2]: 1.3; induction ratio, Total CD44 [2]: 1.8; induction ratio, B-lymphocytes [2]: 1; induction ratio, T-lymphocytes [2]: 1.1; induction ratio, Monocytes [2]: 1.2
LVPDPK (OTHER INFORMATION: Description of Artificial Sequence:Synthetic Peptide) [pepB] | 10 | 8 |  | 1 | 1 | 
LVPDSK (OTHER INFORMATION: Description of Artificial Sequence:Synthetic Peptide) [pepC] | 7 | 10 |  | 1 | 1 | 
VDPK (OTHER INFORMATION: Description of Artificial Sequence:Synthetic Peptide) |  |  | retain chemotactic activity |  |  | 
VLDPK (OTHER INFORMATION: Description of Artificial Sequence:Synthetic Peptide) [pepF] | 6 | 7 |  | 0.7 | 0.7 | induction ratio, Total [2]: 4; induction ratio, Total CD44 [2]: 3.1; induction ratio, B-lymphocytes [2]: 1.1; induction ratio, T-lymphocytes [2]: 0.8; induction ratio, Monocytes [2]: 2.8; chemotactic activity in vivo (in words) [2]: chemotactic but exhibited less activity
VLDSK (OTHER INFORMATION: Description of Artificial Sequence:Synthetic Peptide) |  |  | retain chemotactic activity |  |  | 
VVLDPK (OTHER INFORMATION: Description of Artificial Sequence:Synthetic Peptide) |  |  | chemotactic activity |  |  | 

From US6818621B2, “Osteopontin-derived chemotactic and inhibitory agents and uses therefor” (Children's Medical Center Corporation, priority 1999, dated 2004)
